According to patent US20060166934A1, “Composition comprising phytosphingosine derivatives for apoptosis induction” (Tae-Yoon Kim, priority 2002, published 2006):

What was measured:
[1] = tested on: human keratinocyte cell line HaCaT cells; test: MTT assay, cytotoxicity in human keratinocyte cell line; format: cell-based; conditions: for Cell viability: 24 hours, con = 100, in %
Protocol: (§1) Firstly, the cytotoxicity is measured by the MTT assay. Phytosphingosine (PS), phytosphingosine-HCl (PS-HCl), C6-phytosphingosine (C6-PS), CLA-phytosphingosine (CLA-PS), tetraacetyl phytosphingosine (TAPS), and N-acetyl phytosphingosine (NAPS) are dissolved into DMSO to have the final concentration of 1-100 μM.
(§2) In order to study the effects of the compositions of the present invention on the cytotoxicity in the human keratinocyte cell line HaCaT cells, the cell viability is analyzed by the MTT (3-[4,5-dimethylthiazol-2-yl]-2,5-diphenyltetrazolium bromide) assay. HaCaT cells are supplied by Professor N. Fuseng of German Cancer Research in Germany. HaCaT cells are seeded in a density of 1×10^6 cells in a […] and cultured in DMEM (Dulbecco's Modified Eagle Medium) containing 10% fetal bovine serum (FBS, GIBCO), 100 units/ml penicillin, and 100 μg/ml streptomycin for 48 hours. They are treated with trypsin and 1-2×10^4 cells per well are seeded again in a 96-well plate by using a serum-free culture medium, about 3 hours after which they are cultured by treatment with phytosphingosine derivatives. After they are cultured for 24 hours, the MTT reagent is added at a concentration of 2 mg/ml, cultured for 4 hours, suspended in DMSO after removing the culture medium completely in order to measure O.D. at 540 nm. C2-ceramide is used for comparison.

[2] = tested on: A431 cells, human skin cancer cell line; test: MTT assay, cytotoxicity in human skin cancer cell line; format: cell-based; conditions: for Cell viability: A431, con = 100, in %
Protocol: as §1, §2
In order to study the effects of the compositions of the present invention on the cytotoxicity in A431 cells, human skin cancer cell line, the MTT assay is used. The method of cell culture and MTT assay are the same as those in the above method. C2-ceramide is used for comparison.

[3] = MTT assay, cytotoxicity in HUVEC; format: cell-based, human; conditions: human
Procedure, shortened: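 Primary HUVEC cultured from human umbilical vein; cells in serum-free medium were exposed to phytosphingosine derivatives at final 1–100 μM for 24 h. Viability by MTT (2 mg/ml, 4 h), formazan dissolved in DMSO and read at O.D. 540 nm; C2-ceramide run for comparison.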

[4] = MTT assay, cytotoxicity in immune cells separated from spleen of mice; format: cell-based; conditions: BDF, mouse
Protocol: (§3) The effect of the composition of the present invention on the cytotoxicity in immune cells (T cells, B cells, macrophages, monocytes, etc.) was examined. The spleen was removed from normal mice (BDF) and single cells were obtained from the spleen by mechanical aggregation method. And mononuclear cells containing T cells, B cells, macrophages and monocytes were isolated from single cells by density gradient centrifugation method using Ficoll Hypaque. Briefly, single cells were treated with PBS and overlayed on Ficoll Hypaque and centrifuged at 1500 rpm for 30 min. After centrifugation, the cells around the boundary of the Ficoll-Hapaque were collected and washed three times with PBS. The isolated cells were cultured for 24 hours in the presence of 1, 10, 50 and 100 μM of NAPS, TAPS, and PS to examine the effect of cytotoxicity, i.e. the degree of proliferation of the cells. C2-ceramide was used as control. The medium used in this experiment was RPMI 1640 suplemented with 10% of FBS and 100 μg/ml of penicillin and streptomycin.

Th1 cells activation = test: Mixed leukocyte reaction (MLR), Th1 cells activation by TNBSO3, MTT assay; format: cell-based, mice; conditions: MLR with TNBSO3-conjugated stimulator cells, FIG. 4
Protocol: Whether the composition of the present invention has a suppressive effect on the Th1 cells activation which isolate […], IL-12, etc. by reacting with TNBSO3 […] was examined.
The mononuclear cells obtained from spleen of mice as described the above 4 were used for responder cells, and TNBSO3-conjugated cells were used for stimulator cells. The stimulator cells were obtained as follows:
The mononuclear cells were adjusted to be 2×10^7 cells/ml in PBS and the same volume of 20 mM TNBSO3 was added and incubated at 37° C. for 10 min in the dark state. After incubation, the cells wrer washed three times with PBS.
(§4) Each 2×10^5 responder cells and stimulator cells were mixed with each other and cultured for 5 days on the 96-well plate. And RPMI with 10% of serum was used as a medium.
(§5) The above cells were cultured for 24 hours in the presence of 1, 10, 50 and 100 μM of NAPS, TAPS, and PS to examine the proliferation of the cells.
(§6) C2-ceramide was used as control.

[5] = tested on: Th1 cells activation against allogenic cells (PBMC); test: Reactions among allogenic cells, Th1 cells activation, MTT assay; format: cell-based, human; conditions: FIG. 5
Excerpt: Whether the composition of the present invention has a suppressive effect on the Th1 cells activation by allogenic cells in immune reation was examined.
PBMC obtained from different volunteers as described in the above 5 were used for responder cells and stimulator cells respectively. PBMC for stimulator cells were used after X-ray irradiation (3000 rad) to inhibit the proliferation of stimulator cells.
as §4, §5, §6

[6] = tested on: immune cells (T cells, B cells, macrophages, monocytes) from spleen of mice; test: MTT assay, cytotoxicity in immune cells separated from spleen of mice; format: cell-based; conditions: mouse spleen immune cells, 24 hours, FIG. 2; read-out: IC50 (cytotoxicity)
Protocol: as §3

Chk1 = test: Immunoblot analysis of Chk1; format: cell-based, human; conditions: 30 μM, FIGS. 12 and 13
Protocol: In the confirmation of apoptosis-related proteins, the immunoblot analysis is performed in order to look into the effects of the compositions of the present invention on the expression of caspase-3, p53, and Chk1 proteins related to the induction of apoptosis. HaCaT cells are cultured on a 100-mm dish and collected at the indicative time. The proteins are extracted by adding 500 μl of RIPA lysis buffer (1% Nonidet P-40, 1% sodium deoxycholate, 0.1% SDS, […], 0.01 M sodium phosphate, pH 7.2, 2 mM EDTA, 50 mM sodium fluoride and 0.2 mM sodium vanadate), and the concentration is measured by using the Bradford method. 1 Extracted proteins is electrophoresed on 12% polyacrylamide gel, and they are transferred to the nitrocellulose membrane. The membrane blocked with 5% non-fat milk is reacted with the primary antibodies (caspase-3, p53, and Chk1), washed, and reacted with the secondary HRP-conjugated antibody. The intensity of proteins is analyzed by using the ECL kit.

CCCCCCCCCCCCCC[C@@H](O)[C@@H](O)[C@H](CO)NC(C)=O [NAPS, N-acetyl phytosphingosine]
cytotoxicity ([1]; human, 24 h, 30 μM): 83% | cytotoxicity ([2]; human, 24 h, 50 μM): 95-98% | viability at 24 h, 3.5 µM [3]: 66 ± 7.5% | viability at 24 h, 7 µM [3]: 51 ± 10.5% | viability at 24 h, 15 µM [3]: 19 ± 3.4% | viability at 24 h, 30 µM [3]: 14 ± 0.6% | IC50 at 24 h [4]: ~75 µM | concentration showing a suppressive effect on Th1 cells activation (Th1 cells activation): 50 µM | concentration showing a suppressive effect on Th1 cells activation against allogenic cells [5]: 50 μM

tetraacetyl phytosphingosine [TAPS]
Cell viability ([1]; 1 μM, HaCaT): 94 ± 0.1 | Cell viability ([1]; 3 μM, HaCaT): 93 ± 2.9 | Cell viability ([1]; 10 μM, HaCaT): 76 ± 1.4 | Cell viability ([1]; 30 μM, HaCaT): 17 ± 1.1 | cytotoxicity ([1]; 30 μM, HaCaT): 83% | Cell viability ([2]; 3 μM): 113 ± 11.2 | Cell viability ([2]; 10 μM): 83 ± 13.9 | Cell viability ([2]; 30 μM): 12 ± 1.7 | Cell viability ([2]; 50 μM): 5 ± 1.2 | IC50 [6]: 100 µM | concentration showing a suppressive effect on Th1 cells activation (Th1 cells activation): 10 µM | suppressive effect on Th1 cells activation against allogenic cells ([5]; 50 μM): suppress completely | concentration showing a suppressive effect on Th1 cells activation against allogenic cells [5]: 50 μM | Chk1 protein (Chk1; at 8-hour): not changed greatly | Chk1 protein (Chk1; at 24 hour): rapid reduction
